“Also recorded” adds a separate entry of the source. Where no end group is shown, it is not given here. The star is where a group is joined. Myristoyl = CCCCCCCCCCCCCC(=O)*
Key:
spatial long-term memory = assay: Active place avoidance, intrahippocampal injection, wild-type mice; format: in vivo, mouse; conditions: for spatial memory retention (time to first enter shock zone), 3-day memory: 5 nmol in 0.5 μl per hippocampus 1 day after conditioning; for learning and retention of a new memory (place avoidance in Context B): conditioned 2 days after injection, retention 3 days later
Method: (§1) For spatial long-term memory experiments, we adapted the approach used in Garcia-Osta et al. (82). Mice were ˜12-weeks old at surgery. Briefly, to implant the injection cannula hardware, mice were anesthetized by an intraperitoneal (i.p.) injection of a mixture of dexmedetomidine ([…] body weight) and ketamine (28 mg/kg body weight), and mounted in a Kopf stereotaxic frame (Tujunga, CA). The tips of guide cannula (Plastics One, Roanoke, VA; Part Numbers: C235GS-5-2.0) were targeted above the injection target in the dorsal hippocampus (AP-1.94 mm; ML±1.00 mm; DV-0.90 mm). The other injection hardware (Part Numbers: C235DCs-5, 303DC/1; cannula dummy, cannula cap, respectively) was assembled, and antisedan (0.65 mg/kg body weight i.p.) was administered to reverse the sedation at the end of surgery.
Three to four weeks after surgery, the animals received active place avoidance training. Before testing the effect of the drug injection on place avoidance, the animals received a bilateral injection of vehicle (PBS [pH 7.4] 0.5 μl/side) and were left in the home cage to habituate to the procedure. Depending on the experimental design, injection of vehicle or drug, either ζ-stat or K-ZAP (5 nmol in 0.5 μl PBS/side), is 1 day or 4 weeks after the training session. During the injection, the animals were restrained, the cannula cap and dummy removed, and the injection needle (Plastics One, Roanoke, VA; Part Numbers: C235IS-5) inserted into the guide cannula so that it protruded from the end of the guide by 0.5 mm. The other end of the needle was connected to a 10 μl Hamilton syringe via Tygon tubing. The drug or vehicle was infused for 1 min, and after the infusion the needle was left in place for 5 min before removal. The animals were then returned to their home cages until the memory retention tests that were conducted 2 days later.
Active place avoidance was conducted with a commercial computer-controlled system (Bio-Signal Group, Acton, MA). The mouse was placed on a 40-cm diameter circular arena rotating at 1 rpm. The specialized software, Tracker (Bio-Signal Group, Acton, MA), was used to detect the animal's position 30 times per second by video tracking from an overhead camera. A clear wall made from polyethylene terephthalate glycol-modified (PET-G) was placed on the arena to prevent the animal from jumping off the elevated arena surface. A 5-pole shock grid was placed on the rotating arena, and the shock was scrambled across the 5-poles when the mouse entered the shock zone. All experiments used the “Room+Arena−” task variant that challenges the mouse on the rotating arena to avoid a shock zone that was a stationary 60° sector (7). Every 33 ms, the software determined the mouse's position, whether it was in the shock zone, and whether to deliver shock. After the animal enters the shock zone for 500 ms, a constant current foot-shock (60 Hz, 500 ms) was delivered and repeated with the interval of 1500 ms until the mouse left the shock zone. The shock intensity was 0.2 or 0.3 mA, which was the minimum amplitude to elicit flinch or escape responses. The animal was forced to actively avoid the designated shock zone because the arena rotation periodically transported it into the shock area.
The tracked animal positions with timestamps were analyzed offline (TrackAnalysis, Bio-Signal Group, Acton, MA) to extract several end-point measures. The time to first enter the shock zone estimates ability to avoid shock and was taken as an index of between-session memory. The number of entrances within one trial was taken as another index to examine the animal learning curve throughout all training trials. A pretraining habituation period on the apparatus equivalent in time to a training session, but without shock, was provided.
The training schedule was as follows: 2 h after a 30-min pretraining habituation, the animals received three 30-min training trials, with an intertrial interval of 2 h. […]

[1] = tested on: spatial long-term memory in PKMζ-null mice; assay: Active place avoidance, intrahippocampal injection, PKMζ-null mice; format: in vivo, mouse; conditions: 5 nmol in 0.5 μl per hippocampus 1 day after conditioning, tested 2 days post-injection
Method: as §1
Three to four weeks after surgery, the animals received active place avoidance training. […]
Active place avoidance was conducted with a commercial computer-controlled system (Bio-Signal Group, Acton, MA). […] Every 33 ms, the software determined the mouse's position, whether it was in the shock zone, and whether to deliver shock. […]
The tracked animal positions with timestamps were analyzed offline (TrackAnalysis, Bio-Signal Group, Acton, MA) to extract several end-point measures. […]

## O=S(=O)(O)c1cc(O)c2c(S(=O)(=O)O)cc(S(=O)(=O)O)cc2c1 [ζ-stat, 1-naphthol-3,6,8-trisulphonic acid]
Spatial long-term memory; tested 2 days post-injection
  spatial memory retention (time to first enter shock zone), 3-day memory: persistent loss of retention
Spatial long-term memory; tested 2 days post-injection, listed as z-stat
  spatial memory retention (time to first enter shock zone), 3-day memory: disrupts spatial memory retention; also recorded: disrupt memory retention for the established memory
Spatial long-term memory
  learning and retention of a new memory (place avoidance in Context B): learn to avoid and remember a new second location as well as the mice that had received only vehicle
Spatial long-term memory; listed as z-stat
  learning and retention of a new memory (place avoidance in Context B): do not disrupt learning or retention of a new memory
[1]
  spatial memory retention (time to first enter shock zone), 3-day memory: avoided the shock zone as well as those that had received vehicle; also recorded: not different than vehicle

## myr-N-FVRNSLERRSVRMKRPS-C (Myristoyl-FVRNSLERRSVRMKRPS) [K-ZAP]
Spatial long-term memory; tested 2 days post-injection
  spatial memory retention (time to first enter shock zone), 3-day memory: disrupts established spatial long-term memory retention; also recorded: loss of memory retention
Spatial long-term memory; 5 nmol in 0.5 μl/side injected 4 weeks after training, tested 2 days post-injection
  remote spatial memory retention, 30-day memory: disrupts remote spatial memory; also recorded: loss of memory retention 30 days post-training
[1]
  spatial memory retention (time to first enter shock zone), 3-day memory: has no effect on memory retention; also recorded: intact memory retention

Reference: patent US20250154212A1, “METHOD OF DISRUPTING MEMORY AND LIPOPEPTIDE FOR USE IN SUCH METHOD” (The Research Foundation for The State University of New York, priority 2023, published 2025)
